{"source": "ChEMBL document CHEMBL5696442", "about": "“Discovery of type II inhibitors of TGFβ-activated kinase 1 (TAK1) and mitogen-activated protein kinase kinase kinase kinase 2 (MAP4K2)” (J Med Chem, 2015)", "key": {"[1]": {"molecular_target": "ALK tyrosine kinase receptor (Homo sapiens) (UniProt Q9UM73)", "sequence (Q9UM73 19-1620 limits assumed)": "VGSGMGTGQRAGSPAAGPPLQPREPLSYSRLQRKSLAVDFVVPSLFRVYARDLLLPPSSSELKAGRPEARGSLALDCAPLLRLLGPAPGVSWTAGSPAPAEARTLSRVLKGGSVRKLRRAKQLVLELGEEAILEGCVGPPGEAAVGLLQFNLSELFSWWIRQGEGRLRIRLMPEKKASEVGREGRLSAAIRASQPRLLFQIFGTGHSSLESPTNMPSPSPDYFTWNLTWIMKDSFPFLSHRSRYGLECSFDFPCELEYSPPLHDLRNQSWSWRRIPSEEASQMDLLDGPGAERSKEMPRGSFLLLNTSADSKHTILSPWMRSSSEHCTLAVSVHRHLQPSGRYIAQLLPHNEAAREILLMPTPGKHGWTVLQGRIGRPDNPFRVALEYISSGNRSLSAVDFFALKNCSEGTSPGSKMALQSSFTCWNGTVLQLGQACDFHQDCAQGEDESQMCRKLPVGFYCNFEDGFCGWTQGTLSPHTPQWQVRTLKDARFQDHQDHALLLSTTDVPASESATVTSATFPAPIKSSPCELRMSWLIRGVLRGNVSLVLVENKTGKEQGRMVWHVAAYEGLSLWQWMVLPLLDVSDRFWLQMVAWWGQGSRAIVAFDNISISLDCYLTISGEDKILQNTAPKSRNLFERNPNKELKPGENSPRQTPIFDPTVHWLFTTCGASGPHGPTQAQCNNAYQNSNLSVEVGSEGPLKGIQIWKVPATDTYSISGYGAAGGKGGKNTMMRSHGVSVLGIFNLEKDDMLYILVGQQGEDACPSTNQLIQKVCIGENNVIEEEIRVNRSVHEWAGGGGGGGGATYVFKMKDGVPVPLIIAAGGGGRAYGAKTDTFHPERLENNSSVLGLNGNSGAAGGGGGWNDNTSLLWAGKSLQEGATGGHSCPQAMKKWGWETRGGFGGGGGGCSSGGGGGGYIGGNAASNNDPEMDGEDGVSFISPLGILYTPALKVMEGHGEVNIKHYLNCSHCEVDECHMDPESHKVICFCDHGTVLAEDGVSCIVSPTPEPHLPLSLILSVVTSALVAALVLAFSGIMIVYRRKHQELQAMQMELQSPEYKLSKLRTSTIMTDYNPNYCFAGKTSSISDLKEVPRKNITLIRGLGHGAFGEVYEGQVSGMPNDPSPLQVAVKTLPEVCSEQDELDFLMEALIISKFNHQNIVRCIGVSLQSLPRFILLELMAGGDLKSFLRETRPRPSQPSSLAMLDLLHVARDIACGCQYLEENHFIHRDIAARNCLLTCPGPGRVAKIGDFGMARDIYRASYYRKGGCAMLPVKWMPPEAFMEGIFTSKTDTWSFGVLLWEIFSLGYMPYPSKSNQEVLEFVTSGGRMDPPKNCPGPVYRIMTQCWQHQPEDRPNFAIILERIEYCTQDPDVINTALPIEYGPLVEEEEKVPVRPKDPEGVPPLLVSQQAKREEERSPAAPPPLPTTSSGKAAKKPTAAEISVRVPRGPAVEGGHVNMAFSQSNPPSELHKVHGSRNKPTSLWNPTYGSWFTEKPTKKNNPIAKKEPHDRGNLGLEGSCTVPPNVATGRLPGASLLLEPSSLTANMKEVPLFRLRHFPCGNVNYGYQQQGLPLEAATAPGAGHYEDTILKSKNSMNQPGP", "test": "Inhibition of ALK (unknown origin) at 1 uM by Ambit Kinomescan binding assay relative to control"}, "[2]": {"molecular_target": "Mitogen-activated protein kinase 4 (Homo sapiens) (UniProt P31152)", "sequence (P31152 whole entry)": "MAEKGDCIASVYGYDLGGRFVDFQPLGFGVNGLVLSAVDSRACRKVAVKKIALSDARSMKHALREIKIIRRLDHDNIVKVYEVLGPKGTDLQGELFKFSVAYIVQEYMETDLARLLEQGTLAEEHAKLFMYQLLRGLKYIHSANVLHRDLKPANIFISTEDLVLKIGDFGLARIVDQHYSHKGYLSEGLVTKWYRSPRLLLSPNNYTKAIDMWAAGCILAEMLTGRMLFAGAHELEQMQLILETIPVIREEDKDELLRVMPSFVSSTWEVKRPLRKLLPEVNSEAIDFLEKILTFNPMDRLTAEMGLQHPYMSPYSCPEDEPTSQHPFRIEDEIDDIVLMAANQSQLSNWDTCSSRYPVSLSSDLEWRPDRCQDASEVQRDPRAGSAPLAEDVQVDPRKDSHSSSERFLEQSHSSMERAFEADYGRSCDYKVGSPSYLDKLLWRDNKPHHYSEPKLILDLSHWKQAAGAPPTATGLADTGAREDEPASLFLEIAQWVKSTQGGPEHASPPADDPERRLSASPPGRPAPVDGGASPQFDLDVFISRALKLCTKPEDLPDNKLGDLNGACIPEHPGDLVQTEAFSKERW", "test": "Inhibition of ERK4 (unknown origin) at 1 uM by Ambit Kinomescan binding assay relative to control"}, "[3]": {"molecular_target": "Serine/threonine-protein kinase DCLK1 (Homo sapiens) (UniProt O15075)", "sequence (O15075 whole entry)": "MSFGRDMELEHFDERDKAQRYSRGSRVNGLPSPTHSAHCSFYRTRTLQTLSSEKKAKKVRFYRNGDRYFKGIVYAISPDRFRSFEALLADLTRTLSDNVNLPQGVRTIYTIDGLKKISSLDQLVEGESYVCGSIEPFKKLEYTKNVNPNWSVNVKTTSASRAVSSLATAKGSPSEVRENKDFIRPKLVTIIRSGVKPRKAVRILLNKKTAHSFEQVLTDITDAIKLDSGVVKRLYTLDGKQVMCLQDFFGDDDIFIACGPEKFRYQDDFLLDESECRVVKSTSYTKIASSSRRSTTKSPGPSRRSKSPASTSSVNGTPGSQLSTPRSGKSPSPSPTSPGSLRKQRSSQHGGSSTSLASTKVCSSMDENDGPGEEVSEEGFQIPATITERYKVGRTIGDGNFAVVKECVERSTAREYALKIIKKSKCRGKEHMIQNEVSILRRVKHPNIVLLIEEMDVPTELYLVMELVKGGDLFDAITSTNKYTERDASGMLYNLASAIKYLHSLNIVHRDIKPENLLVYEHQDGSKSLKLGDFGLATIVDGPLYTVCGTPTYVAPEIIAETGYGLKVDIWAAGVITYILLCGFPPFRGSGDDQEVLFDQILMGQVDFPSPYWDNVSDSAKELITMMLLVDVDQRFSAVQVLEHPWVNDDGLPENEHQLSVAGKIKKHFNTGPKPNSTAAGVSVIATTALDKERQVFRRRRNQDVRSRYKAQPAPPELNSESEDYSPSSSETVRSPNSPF", "test": "Inhibition of DCAMKL1 (unknown origin) at 10 uM by Ambit Kinomescan binding assay"}, "293-IL-1R": {"system": "293-IL-1R", "test": "Inhibition of IL-1alpha induced p38 phosphorylation level in human 293-IL-1R cells preincubated for 1 hr followed by IL-1 alpha stimulation and measured after 30 mins by Western blot analysis", "assay_type": "functional, cell-based", "conditions": "dose 0.01-10 µM"}, "[4]": {"molecular_target": "Tyrosine-protein kinase Lyn (Homo sapiens, UniProt P07948)", "sequence (P07948 2-512 limits assumed)": "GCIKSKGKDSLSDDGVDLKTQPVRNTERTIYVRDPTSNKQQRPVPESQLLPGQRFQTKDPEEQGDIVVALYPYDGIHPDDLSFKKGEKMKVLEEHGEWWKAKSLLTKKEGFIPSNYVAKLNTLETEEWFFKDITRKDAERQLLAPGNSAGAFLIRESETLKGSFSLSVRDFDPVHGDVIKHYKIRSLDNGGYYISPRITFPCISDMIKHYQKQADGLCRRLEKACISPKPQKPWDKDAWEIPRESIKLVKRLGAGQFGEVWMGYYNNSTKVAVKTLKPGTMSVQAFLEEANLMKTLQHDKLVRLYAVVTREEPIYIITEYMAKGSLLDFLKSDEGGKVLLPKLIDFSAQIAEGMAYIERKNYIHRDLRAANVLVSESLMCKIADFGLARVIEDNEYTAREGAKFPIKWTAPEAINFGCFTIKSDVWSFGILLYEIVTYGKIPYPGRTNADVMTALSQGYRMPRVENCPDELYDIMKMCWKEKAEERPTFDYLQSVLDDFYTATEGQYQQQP", "test": "Inhibition of LYN Lys1 labeling site in human A-375 cells at 0.05 uM by KiNativ Profiling analysis relative to control", "assay_type": "cell-based"}, "[5]": {"molecular_target": "Serine/threonine-protein kinase 26 (Homo sapiens) (UniProt Q9P289)", "sequence (Q9P289 2-416 limits assumed)": "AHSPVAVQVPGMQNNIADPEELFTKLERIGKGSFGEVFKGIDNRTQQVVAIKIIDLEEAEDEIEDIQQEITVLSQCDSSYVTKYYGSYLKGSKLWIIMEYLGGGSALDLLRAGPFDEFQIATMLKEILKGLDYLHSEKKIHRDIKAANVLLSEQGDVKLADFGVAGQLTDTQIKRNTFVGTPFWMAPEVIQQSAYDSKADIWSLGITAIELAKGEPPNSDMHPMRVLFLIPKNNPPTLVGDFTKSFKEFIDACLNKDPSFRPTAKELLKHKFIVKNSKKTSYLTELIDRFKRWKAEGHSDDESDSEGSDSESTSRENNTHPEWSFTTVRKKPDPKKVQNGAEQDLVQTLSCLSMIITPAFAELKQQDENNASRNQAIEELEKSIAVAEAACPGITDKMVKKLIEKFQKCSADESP", "test": "Inhibition of MST4 ATP labeling site in human Huh-7 cells at 10 uM by KiNativ Profiling analysis relative to control", "assay_type": "cell-based"}, "[6]": {"molecular_target": "Peripheral plasma membrane protein CASK (Homo sapiens) (UniProt O14936)", "sequence (O14936 whole entry, looked up)": "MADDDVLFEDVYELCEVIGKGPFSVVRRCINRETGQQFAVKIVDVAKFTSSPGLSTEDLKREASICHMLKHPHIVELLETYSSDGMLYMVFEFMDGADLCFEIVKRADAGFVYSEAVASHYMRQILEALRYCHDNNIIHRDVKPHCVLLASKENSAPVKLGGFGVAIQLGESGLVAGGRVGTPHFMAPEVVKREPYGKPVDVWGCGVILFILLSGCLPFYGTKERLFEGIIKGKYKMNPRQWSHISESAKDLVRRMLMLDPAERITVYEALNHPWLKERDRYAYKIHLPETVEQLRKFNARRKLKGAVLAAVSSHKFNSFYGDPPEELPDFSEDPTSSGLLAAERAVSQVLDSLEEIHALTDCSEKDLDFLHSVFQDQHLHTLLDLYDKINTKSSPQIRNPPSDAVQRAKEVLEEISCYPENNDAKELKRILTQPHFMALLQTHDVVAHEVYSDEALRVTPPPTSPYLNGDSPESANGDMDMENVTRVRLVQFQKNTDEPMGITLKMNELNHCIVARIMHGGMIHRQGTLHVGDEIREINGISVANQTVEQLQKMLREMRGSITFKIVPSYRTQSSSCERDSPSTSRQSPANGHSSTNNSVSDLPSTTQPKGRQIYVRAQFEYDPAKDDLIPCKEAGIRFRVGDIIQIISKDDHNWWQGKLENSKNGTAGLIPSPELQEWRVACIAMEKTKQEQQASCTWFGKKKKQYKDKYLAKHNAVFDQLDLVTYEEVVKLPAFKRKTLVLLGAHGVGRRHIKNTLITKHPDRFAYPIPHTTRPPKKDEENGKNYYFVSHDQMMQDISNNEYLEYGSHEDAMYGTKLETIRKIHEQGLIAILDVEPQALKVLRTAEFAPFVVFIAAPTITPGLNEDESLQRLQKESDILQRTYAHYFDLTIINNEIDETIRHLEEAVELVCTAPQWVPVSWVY", "test": "Inhibition of CASK Lys1 labeling site in human A-375 cells at 0.05 uM by KiNativ Profiling analysis relative to control"}, "[7]": {"molecular_target": "T1, Mitogen-activated protein kinase kinase kinase 6 (Homo sapiens) (UniProt O95382)", "T1 sequence (whole entry)": "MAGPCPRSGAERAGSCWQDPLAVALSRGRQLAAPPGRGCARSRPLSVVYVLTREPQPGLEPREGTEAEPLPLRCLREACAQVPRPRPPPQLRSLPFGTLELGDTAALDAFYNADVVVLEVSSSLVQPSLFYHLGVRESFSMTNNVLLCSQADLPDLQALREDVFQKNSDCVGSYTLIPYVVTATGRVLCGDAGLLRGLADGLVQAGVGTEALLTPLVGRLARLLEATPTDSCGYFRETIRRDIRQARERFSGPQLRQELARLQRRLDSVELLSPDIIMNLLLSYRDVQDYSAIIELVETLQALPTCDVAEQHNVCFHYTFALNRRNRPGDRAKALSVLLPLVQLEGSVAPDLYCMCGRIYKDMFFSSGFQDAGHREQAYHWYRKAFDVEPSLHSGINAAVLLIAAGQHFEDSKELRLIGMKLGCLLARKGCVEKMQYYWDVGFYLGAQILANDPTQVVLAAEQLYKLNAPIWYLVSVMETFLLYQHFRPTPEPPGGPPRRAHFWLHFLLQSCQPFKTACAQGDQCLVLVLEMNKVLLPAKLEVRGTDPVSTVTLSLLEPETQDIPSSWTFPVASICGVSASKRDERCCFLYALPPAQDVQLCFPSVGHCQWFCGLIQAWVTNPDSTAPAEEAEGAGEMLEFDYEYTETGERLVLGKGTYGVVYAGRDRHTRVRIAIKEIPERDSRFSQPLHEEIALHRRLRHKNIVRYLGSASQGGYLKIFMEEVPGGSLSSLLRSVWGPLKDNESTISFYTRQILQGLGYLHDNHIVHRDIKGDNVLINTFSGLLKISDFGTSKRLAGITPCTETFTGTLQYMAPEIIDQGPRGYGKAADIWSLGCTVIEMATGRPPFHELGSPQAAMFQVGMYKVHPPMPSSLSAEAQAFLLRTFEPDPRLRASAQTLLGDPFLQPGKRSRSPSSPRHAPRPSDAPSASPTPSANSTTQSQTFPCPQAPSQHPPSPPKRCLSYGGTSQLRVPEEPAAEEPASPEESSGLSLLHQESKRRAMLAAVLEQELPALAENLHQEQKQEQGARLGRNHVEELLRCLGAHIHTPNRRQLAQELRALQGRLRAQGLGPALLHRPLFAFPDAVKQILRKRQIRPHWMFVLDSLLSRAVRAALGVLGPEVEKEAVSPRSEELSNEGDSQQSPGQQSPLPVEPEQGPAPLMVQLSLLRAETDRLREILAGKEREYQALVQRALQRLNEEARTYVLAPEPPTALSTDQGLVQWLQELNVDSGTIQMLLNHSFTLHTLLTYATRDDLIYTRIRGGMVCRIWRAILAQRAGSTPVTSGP", "test": "Inhibition of MAP3K6 Lys1 labeling site harbouring IAIKEIPERDSR in human A-375 cells at 0.05 uM by KiNativ Profiling analysis relative to control", "assay_type": "cell-based"}, "[8]": {"molecular_target": "DNA-PK/Ku70/Ku85 (Homo sapiens) (UniProt P78527+P12956+P13010)", "test": "Inhibition of DNAPK ATP labeling site harbouring GHDEREHPFLVKGGEDLR in human Huh-7 cell lysate at 1 uM by KiNativ Profiling analysis relative to control", "assay_type": "subcellular"}, "[9]": {"molecular_target": "Serine/threonine-protein kinase 25 (Homo sapiens) (UniProt O00506)", "test": "Inhibition of YSK1 Lys2 labeling site in human Huh-7 cells at 1 uM by KiNativ Profiling analysis relative to control", "assay_type": "cell-based"}, "[10]": {"molecular_target": "Protein kinase C alpha type (Homo sapiens) (UniProt P17252)", "test": "Inhibition of PKCa Lys2 labeling site in human Huh-7 cell lysate at 1 uM by KiNativ Profiling analysis relative to control", "assay_type": "subcellular"}}, "note": "Activity calls are given as the source filed them. The calls are words filed in the database; no cut-off is given here.", "data": [{"smiles": "CCN1CCN(Cc2ccc(NC(=O)c3ccc(C)c(/C=C/c4cnc5[nH]ccc5c4OC)c3)cc2C(F)(F)F)CC1", "values": [{"measurement": "inhibition", "setting": "[1]", "result": 80, "unit": "%"}, {"measurement": "inhibition", "setting": "[2]", "result": 77, "unit": "%"}]}, {"smiles": "CCN1CCN(Cc2ccc(NC(=O)c3ccc(C)c(Oc4ccnc5[nH]ccc45)c3)cc2C(F)(F)F)CC1", "values": [{"measurement": "inhibition", "setting": "[3]", "result": "inactive"}, {"measurement": "inhibition", "setting": "293-IL-1R", "result": "Dose-Dependent Effect"}, {"measurement": "inhibition", "setting": "[4]", "result": 71.9, "unit": "%"}, {"measurement": "inhibition", "setting": "[5]", "result": 25.3, "unit": "%"}, {"measurement": "inhibition", "setting": "[6]", "result": 10.9, "unit": "%"}, {"measurement": "inhibition", "setting": "[7]", "result": -3.3, "unit": "%"}]}, {"smiles": "CNc1cc(Oc2cc(C(=O)Nc3cc(N4CCN(C)CC4)cc(C(F)(F)F)c3)ccc2C)ncn1", "values": [{"measurement": "inhibition", "setting": "[8]", "result": 7.9, "unit": "%"}, {"measurement": "inhibition", "setting": "[9]", "result": 25.2, "unit": "%"}, {"measurement": "inhibition", "setting": "[10]", "result": -1.2, "unit": "%"}]}]}
